In US5888762A, “Neurotropic growth factors comprising a homeobox peptide” (Centre National De La Recherche Scientifique (CNRS), priority 1994, dated 1999):
Ends that are not written are not given here.

How the values were obtained:
living neurons = test: Penetration of biotinylated pAntp fragments encompassing helix 3 into living neurons; assay type: cell-based; settings: biotinylated peptides 10 μg/ml, 37° C., 3 hours, fluorinated streptavidin
Experimental: These peptides (10 μg/ml) were separately incubated with living neurons, at 37° C. for 3 hours.
After washing and fixation of the cells, the localisation of the peptides is checked by use of fluorinated streptavidin.

[1] = system: dissociated embryonic cells; test: Confocal microscopy of fluoresceinated peptides: internalization and nuclear accumulation; assay type: cell-based, rat; settings: 2 hours incubation, cells cultured 1 day before fixation
Source text: The cells were then washed, plated and cultured for 1 day before fixation.

[2] = system: dissociated rat embryonic neurons; test: Distribution of 35S-methionine labelled peptides in cell compartments and medium; assay type: cell-based; settings: for internalization / translocation through the membrane: 35S-labelled peptides, 2 hours; for MEDIUM (peptide distribution, radioactivity in fraction) / NUCLEAR (peptide distribution, radioactivity in fraction) / POST-NUCLEAR (peptide distribution, radioactivity in fraction): 2 hours incubation, mean ± standard deviation of 6 experiments; for share of the peptides that reach the nuclei: within 2 hours
Experimental: Peptides pAntp50A, pAntp48S, and pAntp40P2, labelled in E. coli with ^35 S-methionine were purified and added to dissociated rat embryonic neurons. After incubation for 2 hours, the medium was recovered by centrifugation and, after lysis of the cells with NP40, nuclear and post-nuclear fractions were isolated.
Identity of the radioactive material present in the nuclei was analysed by gel electrophoresis.
After lysis of the neurons, peptide distribution in the different cell compartments and in the medium was quantified by determination of radioactivity in each fraction.

[3] = system: neurons removed from rat embryos (mesencephalon, spinal cord, cortex); test: Biological effect of pAntp on neuritic growth of cultured neurons; assay type: cell-based; settings: rat embryo neurons in CDM medium, peptide 9 µg/ml (equivalent to 1.3M), 24 h
Experimental: The neurons removed from rat embryos (E14 to E 16) in various regions of the brain (mesencephalon, spinal cord, cortex), are inoculated into a defined medium (CHAMAK and PROCHIANTZ, DEVELOPMENT, 106, 483, 1989) which permits the survival of only the neuronal cells (CDM medium).
The peptide is added to the nerve cells at a concentration of […] (equivalent to 1.3M).

| Substance | intracellular localization of the fluorescent label (penetration) (living neurons) | uptake and nuclear accumulation by confocal microscopy [1] | internalization / translocation through the membrane [2] | MEDIUM (peptide distribution, radioactivity in fraction) [2] | NUCLEAR (peptide distribution, radioactivity in fraction) [2] | POST-NUCLEAR (peptide distribution, radioactivity in fraction) [2] | share of the peptides that reach the nuclei [2] | neuritic growth [3] |
| --- | --- | --- | --- | --- | --- | --- | --- | --- |
| pAntp 43-58: synthetic biotinylated peptide, amino-acids 43-58 of pAntp, helix 3 (SEQ ID NO: 8) (RQIKIWFQNRRMKWKK; also: biotinylated, site not given here) | intracellular localization of the fluorescent label | – | – | – | – | – | – | – |
| pAntp50A: mutant recombinant pAntp, Glu^50 →Ala^50 substitution in helix 3 plus His^36 →Tyr cloning artifact (SEQ ID NO: 10) | – | taken up by all cells in the population and significant concentrations of the peptides accumulated in the nuclei | internalized rapidly | 75.0 ± 6% | 19.0 ± 5% | 6.0 ± 1% | 10 to 20% | none of the mutants pAntp40P2, pAntp50A, and pAntp48S was able to promote neurite growth |
| pAntp 41-55: synthetic biotinylated peptide, amino-acids 41-55 of pAntp (SEQ ID NO: 9) | not | – | – | – | – | – | – | – |
| pAntp48S: mutant pAntp, Trp^48, Phe^49 and Glu^50 in helix 3 replaced by a single serine residue (SEQ ID NO. 11) | – | – | unable to translocate through the membrane | 96.5 ± 1% | 2.5 ± 0.5% | 1.0 ± 0.5% | – | none of the mutants pAntp40P2, pAntp50A, and pAntp48S was able to promote neurite growth |
| pAntp40P2: mutant pAntp, Leu^40 and Thr^41 substituted by two proline residues (SEQ ID NO: 12) | – | taken up by all cells in the population and significant concentrations of the peptides accumulated in the nuclei | internalized rapidly | 87.5 ± 2.5% | 11.5 ± 2% | 1.0 ± 0.5% | 10 to 20% | none of the mutants pAntp40P2, pAntp50A, and pAntp48S was able to promote neurite growth |
| pAntp 41-60: synthetic biotinylated peptide, amino-acids 41-60 of pAntp (SEQ ID NO: 7) (TERQIKIWFQNRRMKWKKEN; also: biotinylated, site not given here) | intracellular localization of the fluorescent label | – | – | – | – | – | – | – |
